The record followed here is paper PMC9783573, “Introduction of a SiFA Moiety into the D-Glutamate Chain of DOTA-PP-F11N Results in Radiohybrid-Based CCK-2R-Targeted Compounds with Improved Pharmacokinetics In Vivo” (Pharmaceuticals, 2022).

The structures appear in SMILES notation. Starred links: 1 amine or outer side, 2 acyl side, 3 side chain; linkers in the order of their positions; H or OH if unused. Non-standard residues stand in square brackets, D forms with d. Residues, ends and D or L forms follow the SMILES beside them. *: point of attachment. X1 = O=C(O)CN1CCN(CC(=O)O)CCN([C@H](CCC(=O)*)C(=O)O)CCN(CC(=O)O)CC1; Benzoyl(4-SiFtBu2) = CC(C)(C)[Si](F)(c1ccc(C(=O)*)cc1)C(C)(C)C; d(γGlu) = O=C(O)[C@@H](CCC(=O)[*:2])N[*:1]; Nle = CCCC[C@H](N)C(=O)O; dDap = NC[C@@H](N)C(=O)O

This data set is described as follows: Lipophilicity, n-octanol/PBS (pH 7.4) distribution coefficient. In kind it is physicochemical. The note with it: 177Lu-labelled peptide; n-octanol/PBS pH 7.4; read-out: logD7.4. As for the experimental part:
Lipophilicity (depicted as octanol-phosphate-buffered saline solution (PBS, pH = 7.4) distribution coefficient, logD7.4) was determined via dissolving the ^177Lu-labelled peptide (approx. 1 MBq) in a mixture (1/1, v/v) of n-octanol and PBS. The suspension was vortexed in a reaction vial (1.5 mL) for 3 min at RT and the vial was centrifuged at 9000× […] for 5 min (Biofuge 15, Heraus Sepatech GmbH, Osterode, Germany). 200 μL aliquots of both layers were measured separately in a γ-counter (Perkin Elmer, Waltham, MA, USA). The experiment was repeated at least five times.
Take `CCCC[C@H](NC(=O)[C@H](Cc1c[nH]c2ccccc12)NC(=O)CNC(=O)[C@H](Cc1ccc(O)cc1)NC(=O)[C@H](C)NC(=O)CC[C@@H](NC(=O)CC[C@@H](NC(=O)[C@@H](CNC(=O)c1ccc([Si](F)(C(C)(C)C)C(C)(C)C)cc1)NC(=O)CC[C@@H](NC(=O)CC[C@@H](NC(=O)CC[C@@H](NC(=O)CC[C@@H](NC(=O)CC[C@H](C(=O)O)N1CCN(CC(=O)O)CCN(CC(=O)O)CCN(CC(=O)O)CC1)C(=O)O)C(=O)O)C(=O)O)C(=O)O)C(=O)O)C(=O)O)C(=O)N[C@@H](CC(=O)O)C(=O)N[C@@H](Cc1ccccc1)C(N)=O` [[nat/177Lu]Lu-(R)-DOTAGA-rhCCK-12, metal not drawn] ({X1-d(γGlu)-d(γGlu)-d(γGlu)-d(γGlu)}-[dDap](Benzoyl(4-SiFtBu2))[d(γGlu)][d(γGlu)]AYGW[Nle]DF-NH2): the logD was -2.34 ± 0.05.
For `CCCC[C@H](NC(=O)[C@H](Cc1c[nH]c2ccccc12)NC(=O)CNC(=O)[C@H](Cc1ccc(O)cc1)NC(=O)[C@H](C)NC(=O)[C@@H](CCC(=O)O)NC(=O)[C@@H](CCC(=O)O)NC(=O)[C@@H](CCC(=O)O)NC(=O)[C@@H](CCC(=O)O)NC(=O)[C@@H](CNC(=O)c1ccc([Si](F)(C(C)(C)C)C(C)(C)C)cc1)NC(=O)[C@@H](CCC(=O)O)NC(=O)[C@@H](CCC(=O)O)NC(=O)CC[C@H](C(=O)O)N1CCN(CC(=O)O)CCN(CC(=O)O)CCN(CC(=O)O)CC1)C(=O)N[C@@H](CC(=O)O)C(=O)N[C@@H](Cc1ccccc1)C(N)=O` [[nat/177Lu]Lu-(R)-DOTAGA-rhCCK-5, metal not drawn] (X1-[dE][dE][dDap](Benzoyl(4-SiFtBu2))[dE][dE][dE][dE]AYGW[Nle]DF-NH2), the logD was -2.67 ± 0.05.
The value for `CCCC[C@H](NC(=O)[C@H](Cc1c[nH]c2ccccc12)NC(=O)CNC(=O)[C@H](Cc1ccc(O)cc1)NC(=O)[C@H](C)NC(=O)[C@@H](CCC(=O)O)NC(=O)[C@@H](CCC(=O)O)NC(=O)[C@@H](CCC(=O)O)NC(=O)[C@@H](CCC(=O)O)NC(=O)[C@@H](CCC(=O)O)NC(=O)[C@@H](CCC(=O)O)NC(=O)[C@@H](CCC(=O)O)NC(=O)[C@@H](CNC(=O)c1ccc([Si](F)(C(C)(C)C)C(C)(C)C)cc1)NC(=O)CC[C@H](C(=O)O)N1CCN(CC(=O)O)CCN(CC(=O)O)CCN(CC(=O)O)CC1)C(=O)N[C@@H](CC(=O)O)C(=O)N[C@@H](Cc1ccccc1)C(N)=O` [[nat/177Lu]Lu-(R)-DOTAGA-rhCCK-8, metal not drawn] (X1-[dDap](Benzoyl(4-SiFtBu2))[dE][dE][dE][dE][dE][dE][dE]AYGW[Nle]DF-NH2) was -2.19 ± 0.08; that for `CCCC[C@H](NC(=O)[C@H](Cc1c[nH]c2ccccc12)NC(=O)CNC(=O)[C@H](Cc1ccc(O)cc1)NC(=O)[C@H](C)NC(=O)CC[C@@H](NC(=O)CC[C@@H](NC(=O)CC[C@@H](NC(=O)CC[C@@H](NC(=O)CC[C@@H](NC(=O)CC[C@@H](NC(=O)CC[C@@H](NC(=O)[C@@H](CNC(=O)c1ccc([Si](F)(C(C)(C)C)C(C)(C)C)cc1)NC(=O)CC[C@H](C(=O)O)N1CCN(CC(=O)O)CCN(CC(=O)O)CCN(CC(=O)O)CC1)C(=O)O)C(=O)O)C(=O)O)C(=O)O)C(=O)O)C(=O)O)C(=O)O)C(=O)N[C@@H](CC(=O)O)C(=O)N[C@@H](Cc1ccccc1)C(N)=O` [[nat/177Lu]Lu-(R)-DOTAGA-rhCCK-17, metal not drawn] was -2.1 ± 0.06.
In the case of `CCCC[C@H](NC(=O)[C@H](Cc1c[nH]c2ccccc12)NC(=O)CNC(=O)[C@H](Cc1ccc(O)cc1)NC(=O)[C@H](C)NC(=O)[C@@H](CCC(=O)O)NC(=O)[C@@H](CCC(=O)O)NC(=O)[C@@H](CCC(=O)O)NC(=O)[C@@H](CCC(=O)O)NC(=O)[C@@H](CCC(=O)O)NC(=O)[C@@H](CCC(=O)O)NC(=O)[C@@H](CNC(=O)c1ccc([Si](F)(C(C)(C)C)C(C)(C)C)cc1)NC(=O)CC[C@H](C(=O)O)N1CCN(CC(=O)O)CCN(CC(=O)O)CCN(CC(=O)O)CC1)C(=O)N[C@@H](CC(=O)O)C(=O)N[C@@H](Cc1ccccc1)C(N)=O` [[nat/177Lu]Lu-(R)-DOTAGA-rhCCK-7, metal not drawn] (X1-[dDap](Benzoyl(4-SiFtBu2))[dE][dE][dE][dE][dE][dE]AYGW[Nle]DF-NH2) it was -2.63 ± 0.08.
